Measurements: patent US4233445A, “7-(Substituted)-7H-pyrrolo[3.2-F]-quinazoline-1,3-diamines” (American Home Products Corporation, priority 1979, dated 1980)
Values after ≈ are worked out from the molar mass of the structure shown. Blank lines part the entries; values can stand above or below the compound they belong to.

Experiments:
S. aureus 53-180 = assay: In vitro antibacterial activity (MIC), S. aureus 53-180; assay type: cell-based; conditions: agar dilution, 18 hours at 35° C.
Experimental: (§1) The compounds have shown activity in vitro against one or more of the following strains of bacteria: S. aureus Smith, S. aureus 53-180, N. catarrhalis 8193, E. coli 9637, S. paratyphi 11737, K. pneumoniae 10031, or P. vulgaris 6896.
(§2) A stock solution or suspension of the test compound at a concentration of 2500 μg/ml. is prepared utilizing a suitable solvent or medium such as aqueous sodium hydroxide, aqueous lactic acid, methyl cellosolve, dimethylsulfoxide, dimethylacetamide, ethylene glycol, dimethylformamide, formamide, propylene glycol, acetone or methanol. Two-fold dilutions are made by adding appropriate amounts of sterile water to the solution or suspension of the test substance. One ml. quantities of each dilution are incorporated into Wellcotest Sensitivity Test Agar fortified with 5% hemolyzed horse blood (9 ml. vol.) in sterile Petri dishes to give plates containing varying concentrations of the test compound. The hardened surfaces of each plate are incubated with the test organism, and the plates are incubated for 18 hours at 35° C.

N. catarrhalis 8193 = assay: In vitro antibacterial activity (MIC), N. catarrhalis 8193; assay type: cell-based; conditions: agar dilution, 18 hours at 35° C.
Experimental: as §1, §2

S. aureus Smith = assay: In vitro antibacterial activity (MIC), S. aureus Smith; assay type: cell-based; conditions: agar dilution, 18 hours at 35° C.
Experimental: as §1, §2

K. pneumoniae 10031 = assay: In vitro antibacterial activity (MIC), K. pneumoniae 10031; assay type: cell-based; conditions: agar dilution, 18 hours at 35° C.
Experimental: as §1, §2

S. paratyphi 11737 = assay: In vitro antibacterial activity (MIC), S. paratyphi 11737; assay type: cell-based; conditions: agar dilution, 18 hours at 35° C.
Experimental: as §1, §2

E. coli 9637 = assay: In vitro antibacterial activity (MIC), E. coli 9637; assay type: cell-based; conditions: agar dilution, 18 hours at 35° C.
Experimental: as §1, §2

P. vulgaris 6896 = assay: In vitro antibacterial activity (MIC), P. vulgaris 6896; assay type: cell-based; conditions: agar dilution, 18 hours at 35° C.
Experimental: as §1, §2

[1] = test system: Staphylococcus aureus CHP; assay: In vivo antibacterial synergism (mouse), Staphylococcus aureus CHP; set-up: species or system Mice (male, CD-1 strain); conditions: p.o., at time of infection, Cpd. dose in combination with SM, 20160 min
Experimental: (§3) The test agent is weighed, suspended in 0.5% aqueous carboxymethyl cellulose, hemogenized (glass tissue grinder) and diluted according to the design of the experiment. Mice (male, 18±1 g., CD-1 strain) are pre-weighed, pooled, infected at random intraperitoneally with a 0.5 ml. standardized suspension (LD95 ±5%) of the bacterial organism in 5% gastric mucin and treated at random with single doses of the test agents either at the time of infection or six hours after infecting. The treated groups consist of ten mice per dosage level. Deaths are recorded daily for 14 days and the PD50 (mice are treated at time of infection) and CD50 (mice are treated six hours after infecting) values are calculated by the method of Reed and Muench [Amer. J. Hyg., 27, (1938)].

Escherichia coli (E-2) = assay: In vivo antibacterial synergism (mouse), Escherichia coli (E-2); set-up: species or system Mice (male, CD-1 strain); conditions: p.o., at time of infection, Cpd. dose in combination with SM, 20160 min
Experimental: as §3

Escherichia coli (E-3) = assay: In vivo antibacterial synergism (mouse), Escherichia coli (E-3); set-up: species or system Mice (male, CD-1 strain); conditions: p.o., at time of infection, Cpd. dose in combination with SM, 20160 min
Experimental: as §3

SMILES: CC(C)c1cccc(Cn2ccc3c4c(N)nc(N)nc4ccc32)c1 [Example 5]
MIC (minimal inhibitory concentration) (S. aureus 53-180): 0.488 µg/mL (≈ 1.47 µM)
MIC (minimal inhibitory concentration) (N. catarrhalis 8193): 3.9 µg/mL (≈ 11.8 µM)
MIC (minimal inhibitory concentration) (S. aureus Smith): 1.95 µg/mL (≈ 5.88 µM)
MIC (minimal inhibitory concentration) (K. pneumoniae 10031): 0.244 µg/mL (≈ 0.736 µM)
MIC (minimal inhibitory concentration) (S. paratyphi 11737): 31.3 µg/mL (≈ 94.4 µM)
MIC (minimal inhibitory concentration) (E. coli 9637): 7.81 µg/mL (≈ 23.6 µM)
MIC (minimal inhibitory concentration) (P. vulgaris 6896): 62.5 µg/mL (≈ 189 µM)

MIC (S. aureus Smith; Staphylococcus aureus, read-out: MIC (minimal inhibitory concentration)): 31.5 µg/mL (≈ 90.7 µM)
SMILES: COC(=O)c1ccc(Cn2ccc3c4c(N)nc(N)nc4ccc32)cc1 [Example 8]

SMILES: Nc1nc(N)c2c(ccc3c2ccn3-c2ccncc2)n1 [Example 10, 7-(4-Pyridinyl)-7H-pyrrolo-[3,2-f]quinazoline-1,3-diamine]
PD50, SM/Cpd. (Cpd. component) [1]: 7.28 mg. per kg.
PD50, SM/Cpd. (Cpd. component) (Escherichia coli (E-2)): 1.20 mg. per kg.
PD50, SM/Cpd. (Cpd. component) (Escherichia coli (E-3)): 6.25 mg. per kg.
